Source: patent US9089572B2, “Inhibitors of p97” (California Institute of Technology, priority 2008, dated 2015)

Assays:
[1] = system: RPMI8226 cells; test: Accumulation of high molecular weight ubiquitin conjugates (anti-ubiquitin immunoblot), RPMI8226 cells; type: cell-based; settings: 1 h at 37° C.
Description: (§1) To evaluate whether compound 2 can target p97 activity in cells, we sought to determine whether this compound induces accumulation of high molecular weight ubiquitin conjugates, since it is known that RNAi-mediated knockdown of p97 in mammalian cells has this effect (Wojcik, C. et al. J. Cell Sci. (2004) 117, 281-292). As a positive control for this experiment, the proteasome inhibitor MG132 was used. […] The cells were then harvested, lysed, and centrifuged to generate soluble and insoluble fractions. These fractions were then immunoblotted with anti-ubiquitin antibodies to detect accumulation of high molecular weight conjugates. Blots were also probed with anti-PSTAIRE antibodies as a loading control. […] This effect is particularly pronounced in the insoluble fraction.
(§2) To evaluate whether compound 8 can target p97 activity in cells, it was determined whether this compound induces accumulation of high molecular weight ubiquitin conjugates, since it is known that RNAi-mediated knockdown of p97 in mammalian cells has this effect (Wojcik, C. et al. J. Cell Sci. (2004) 117, 281-292). The proteasome inhibitor bortezomib (velcade) was employed as a positive control for this experiment. HeLa (FIG. 25) or RPMI8226 (FIG. 26) cells were treated with Velcade, compound 8, or a combination thereof for 1 h at 37° C. The cells were then harvested and cell lysates were immunoblotted with anti-ubiquitin antibodies to detect accumulation of high molecular weight conjugates. Blots were also probed with anti-PSTAIRE antibodies as a loading control.

[2] = system: MRC5-SV40; test: CellTiter-Glo growth inhibition, MRC5 cells engineered to express SV40; type: cell-based
[3] = system: MRC5-WT; test: CellTiter-Glo growth inhibition, parental MRC5 cells; type: cell-based; settings: Homo sapiens, 48 h at 37° C., read-out: Cell line inhibition of growth GI50 MRC5-WT
[4] = system: HEK293 cells that stably expressed TCR-GFP; test: Accumulation of ERAD reporter TCR-alpha-GFP; type: cell-based; settings: 2 h at 37° C., fluorescence microscopy
Protocol: Since p97 has a well-established role in ERAD, it was also determined whether compound 2 affects the accumulation of an ERAD-reporter, TCR-alpha-GFP. HEK293 cells that stably expressed TCR-GFP were treated with MG132 (see FIG. 19), compound 1 or compound 2 (FIG. 20) at the indicated concentrations for 2 h at 37° C. prior to being imaged by fluorescence microscopy to determine TCR-GFP accumulation. […] It was thus concluded that compound 2 inhibits p97 in cells, resulting in the accumulation of both soluble and insoluble high molecular weight ubiquitin conjugates and UPS substrates whose degradation depends upon p97.
HEK293 cells that stably expressed TCR-GFP were treated with the Velcade (FIG. 30) or compound 8 (FIG. 31) at the indicated concentrations for 2 h at 37° C. prior to being imaged by fluorescence microscopy to quantify TCR-GFP accumulation.

[5] = target: wild type p97 (Mus musculus, UniProt Q01853); test: ATP Kinase glo assay of p97 ATPase activity; type: biochemical
Sequence of wild type p97 (Q01853 whole entry): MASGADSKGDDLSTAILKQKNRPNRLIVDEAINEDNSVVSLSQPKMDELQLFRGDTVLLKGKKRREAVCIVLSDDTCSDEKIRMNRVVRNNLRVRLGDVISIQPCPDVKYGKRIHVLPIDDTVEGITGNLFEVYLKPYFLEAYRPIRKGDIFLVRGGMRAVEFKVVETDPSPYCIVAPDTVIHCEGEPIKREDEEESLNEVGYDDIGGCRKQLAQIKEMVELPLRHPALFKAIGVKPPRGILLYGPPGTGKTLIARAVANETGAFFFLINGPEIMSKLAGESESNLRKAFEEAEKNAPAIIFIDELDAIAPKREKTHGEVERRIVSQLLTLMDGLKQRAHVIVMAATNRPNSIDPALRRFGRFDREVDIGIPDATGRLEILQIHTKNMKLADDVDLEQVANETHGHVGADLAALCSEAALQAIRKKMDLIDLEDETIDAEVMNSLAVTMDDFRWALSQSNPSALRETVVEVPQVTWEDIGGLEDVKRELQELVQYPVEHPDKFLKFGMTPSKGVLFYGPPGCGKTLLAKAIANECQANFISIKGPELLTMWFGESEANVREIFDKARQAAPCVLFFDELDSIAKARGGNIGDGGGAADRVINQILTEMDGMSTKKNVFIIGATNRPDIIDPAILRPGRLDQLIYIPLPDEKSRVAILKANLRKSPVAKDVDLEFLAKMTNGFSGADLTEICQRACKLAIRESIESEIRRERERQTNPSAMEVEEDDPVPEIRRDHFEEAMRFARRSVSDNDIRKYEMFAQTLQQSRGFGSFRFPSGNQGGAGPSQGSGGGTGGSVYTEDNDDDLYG
Protocol: An assay that measures the ATPase activity of p97 and that is amenable to high-throughput screening (HTS) was developed based on the commercially-available “Kinase-Glo” assay format, wherein the ATP hydrolytic activity of p97 is monitored by using luciferase to measure the level of residual ATP in a sample following incubation with p97. Using this assay, circa 16,000 compounds were screened to evaluate their effect on the ATP hydrolysis activity of p97. This effort yielded several candidates that inhibit p97 activity. Among the compounds that were identified, one that was of particular interest was compound 8 (9-(2-nitrovinyl) anthracene shown below:
It was shown that a key feature of compound 8 is that its mode of inhibition is dependent upon the presence of a cysteine at position 522 in the D2 domain of p97.

[6] = system: HeLa cell line that stably expresses UbG76V-GFP; test: Accumulation of UbG76V-GFP in HeLa cells (fluorescence microscopy); type: cell-based; settings: 1 h at 37° C., fluorescence microscopy
Protocol: As a control, the same cells were treated with the proteasome inhibitor MG132. In the latter set of experiments, a HeLa cell line that stably expresses UbG76V-GFP was transfected with either wild type (WT), D1 mutant (E305Q), D2 mutant (E578Q) or E305Q, E578Q double mutant (QQ) murine 97-pcDNA4.1 plasmid (0.05 μg/100 μL) in a 96-well plate. After 23 h, the intensity of UbG76V-GFP signal was measured on a Molecular Devices ImageXpress automated fluorescence microscope. […] The direct accumulation of Ub-G76V-GFP caused by compound 2 at 25 μM is 4-fold less than that caused by MG132 at 2 μM. This is likely due to the fact that only fully folded Ub-G76V-GFP should require p97 for degradation by the proteasome.
As a second test of whether compound 8 can inhibit p97 in vivo, it was evaluated whether it can cause accumulation of the UbG76V-GFP reporter. A HeLa cell line that stably expresses UbG76V-GFP was treated with compound 8 for 1 h at 37° C., and was then evaluated by fluorescence microscopy. As a control, the same cells were treated with the proteasome inhibitor MG132. […] The level of GFP fluorescence was quantified in cells treated with compound 8 at different doses and for different periods of time (FIG. 28).

[7] = system: HeLa cells; test: Accumulation of high molecular weight ubiquitin conjugates (anti-ubiquitin immunoblot), HeLa cells; type: cell-based; settings: 1 h at 37° C.
Description: as §1, §2

[8] = system: Ub-G76V-GFP/HeLa cells; test: Degradation of pre-accumulated Ub-G76V-GFP (cycloheximide chase after MG132 washout); type: cell-based; settings: for % K: relative to 0 μM
Protocol: To evaluate this possibility, an assay was developed to determine the rate of degradation of pre-accumulated Ub-G76V-GFP molecules. […] Cells were then washed with PBS three times remove the MG132. Cells were then refreshed by adding DMEM containing cycloheximide (50 μg/mL; to block production of more Ub-G76V-GFP) and test compounds (0˜10 μM) were added into cells. Eight 96-well plates were prepared and one of the plates was imaged at 25, 50, 70, 100, 110, 125, 145, or 170 min after washing with PBS three times. After washing out MG132, degradation of pre-accumulated Ub-G76V-GFP appears to follow pseudo-first order reaction. Rate constant (K; 1/min) can be determined from the slope of plotting Ln (Fold Accumulation) versus Time (min) (see FIG. 17 and FIG. 18).
Ub-G76V-GFP/HeLa cells were treated with MG132 (2 μM) for 1 h and washed with PBS three times. DMEM containing cycloheximide (50 μg/mL) and compound 8 (0-10 μM) was added into cells. Eight 96-well plates were prepared and one of the plates was imaged at 25, 50, 70, 100, 110, 125, 145, or 170 min after washing with PBS three times.

Structure (SMILES): O=[N+]([O-])C=Cc1c2ccccc2cc2ccccc12 [Compound 8, 9-(2-nitrovinyl) anthracene]
- accumulation of high molecular weight ubiquitin conjugates, RPMI8226 cells [1]: caused accumulation of high molecular weight ubiquitin conjugates
- GI50 ([2]; Homo sapiens, MRC5, 48 h at 37° C., CellTiter-Glo, read-out: Cell line inhibition of growth GI50 MRC5-SV40): 5 ± 3 µM
- greater sensitivity of SV40-transformed cells than WT cell line ([2]; MRC5-SV40 vs MRC5-WT GI50): 3.4 fold
- GI50 [3]: 17 ± 9 µM
- accumulation of TCR-alpha-GFP [4]: induced accumulation of the ERAD reporter, TCR-alpha-GFP
- inhibition of wild type p97 compared with the C522A-p97 mutant [5]: significantly greater degree
- accumulation of UbG76V-GFP [6]: caused detectable accumulation of UbG76V-GFP
- accumulation of high molecular weight ubiquitin conjugates, HeLa cells [7]: caused accumulation of high molecular weight ubiquitin conjugates
- K, rate constant of Ub-G76V-GFP degradation ([8]; 0.01 μM): 0.034 min⁻¹
- % K ([8]; 0.01 μM): 89%
- K, rate constant of Ub-G76V-GFP degradation ([8]; 0.04 μM): 0.033 min⁻¹
- % K ([8]; 0.04 μM): 87%
- K, rate constant of Ub-G76V-GFP degradation ([8]; 0.16 μM): 0.032 min⁻¹
- % K ([8]; 0.16 μM): 85%
- K, rate constant of Ub-G76V-GFP degradation ([8]; 0.63 μM): 0.031 min⁻¹
- % K ([8]; 0.63 μM): 81%
- K, rate constant of Ub-G76V-GFP degradation ([8]; 2.5 μM): 0.027 min⁻¹
- % K ([8]; 2.5 μM): 71%
- K, rate constant of Ub-G76V-GFP degradation ([8]; 10 μM): 0.023 min⁻¹
- % K ([8]; 10 μM): 60%
- IC50 ([8]; Homo sapiens, HeLa, 1 h, read-out: IC50 on the decay of Ub-G76V-GFP): 10 ± 4 µM
